The record followed here is patent publication US7919513B2, “Inhibitors of p38” (Vertex Pharmaceuticals Incorporated, priority 2000, dated 2011).

Assay [1] has as its system IL-1 production in LPS-stimulated PBMCs. The assay is described as follows: Inhibition of IL-1 production in LPS-stimulated PBMCs ("cell"). Conditions: Homo sapiens, PBMC, 4 ng/ml LPS, overnight, ELISA IL-1β. It counts as cell-based. The protocol: (§1) C. Inhibition of IL-1, TNF, IL-6 and IL-8 Production in LPS-Stimulated PBMCs
(§2) Inhibitors were serially diluted in DMSO from a 20 mM stock. At least 6 serial dilutions were prepared. Then 4× inhibitor stocks were prepared by adding 4 μl of an inhibitor dilution to 1 ml of RPMI1640 medium/10% fetal bovine serum. The 4× inhibitor stocks contained inhibitor at concentrations of 80 μM, 32 μM, 12.8 μM, 5.12 μM, 2.048 μM, 0.819 μM, 0.328 μM, 0.131 μM, 0.052 μM, 0.021 μM etc. The 4× inhibitor stocks were pre-warmed at 37° C. until use.
(§3) Fresh human blood buffy cells were separated from other cells in a Vacutainer CPT from Becton & Dickinson (containing 4 ml blood and enough DPBS without Mg^2+/Ca^2+ to fill the tube) by centrifugation at 1500×g for 15 min. […] The total cell number was determined using a Neubauer Cell Chamber and the cells were adjusted to a concentration of 4.8×10^6 cells/ml in cell culture medium (RPMI1640 supplemented with 10% fetal bovine serum). […]
(§4) The next day the cells were mixed on a shaker for 3-5 minutes before centrifugation at 500×g for 5 minutes. Cell culture supernatants were harvested and analyzed by ELISA for levels of IL-1β (R & D Systems, Quantikine kits, #DBL50), TNF-α (BioSource, #KHC3012), IL-6 (Endogen, #EH2-IL6) and IL-8 (Endogen, #EH2-IL8) according to the instructions of the manufacturer. […]

Assay [2] relates to TNF production in LPS-stimulated PBMCs. The assay is described as follows: Inhibition of TNF production in LPS-stimulated PBMCs ("cell"). The assay is classed as cell-based. Conditions: Homo sapiens, PBMC, 4 ng/ml LPS, overnight, ELISA TNF-α. The protocol: as §1, §2, §3, §4
Background: In an ELISA, binding on a coated surface is turned into a signal by an enzyme label.

The subject of assay [3] is IL-6 production in whole blood. The assay is described as follows: Inhibition of IL-6 production in LPS-stimulated whole blood ("WB"). It counts as cell-based. Conditions: Homo sapiens, 4 ng/ml LPS, overnight, ELISA IL-6. The protocol: as §1, §2
(§5) Alternatively, whole blood containing an anti-coagulant was used directly in the assay.
(§6) 100 μl of cell suspension or whole blood were placed in each well of a 96-well cell culture plate. Then 50 μl of the 4× inhibitor stock was added to the cells. Finally, 50 μl of a lipopolysaccharide (LPS) working stock solution (16 ng/ml in cell culture medium) was added to give a final concentration of 4 ng/ml LPS in the assay. […]
as §4

The target of a further assay is activated p38 (Homo sapiens, UniProt Q16539). In words: Kinase assay: inhibition of phosphorylation of EGF receptor peptide. The assay is classed as biochemical. Conditions: activated p38 5 nM, EGF receptor peptide 200 μM, ATP 100 μM, 30° C, HPLC. The protocol: A. Inhibition of Phosphorylation of EGF Receptor Peptide
Chain of activated p38 (Q16539 whole entry): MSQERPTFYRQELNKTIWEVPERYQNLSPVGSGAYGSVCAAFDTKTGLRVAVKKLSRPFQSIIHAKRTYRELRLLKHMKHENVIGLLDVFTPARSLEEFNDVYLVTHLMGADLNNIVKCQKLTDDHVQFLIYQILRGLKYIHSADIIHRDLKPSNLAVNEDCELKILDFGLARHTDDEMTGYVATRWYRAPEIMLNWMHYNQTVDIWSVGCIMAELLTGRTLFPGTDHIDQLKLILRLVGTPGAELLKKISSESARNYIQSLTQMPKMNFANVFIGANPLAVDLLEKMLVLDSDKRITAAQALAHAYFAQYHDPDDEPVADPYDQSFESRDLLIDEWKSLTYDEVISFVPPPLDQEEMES
This assay was carried out in the presence of 10 mM MgCl2, 25 mM β-glycerophosphate, 10% glycerol and 100 mM HEPES buffer at pH 7.6. For a typical IC50 determination, a stock solution was prepared containing all of the above components and activated p38 (5 nM). The stock solution was aliquotted into vials. A fixed volume of DMSO or inhibitor in DMSO (final concentration of DMSO in reaction was 5%) was introduced to each vial, mixed and incubated for 15 minutes at room temperature. EGF receptor peptide, […] (SEQ ID NO: 3), a phosphoryl acceptor in p38-catalyzed kinase reaction (1), was added to each vial to a final concentration of 200 μM. The kinase reaction was initiated with ATP (100 μM) and the vials were incubated at 30° C. After 30 minutes, the reactions were quenched with equal volume of 10% trifluoroacetic acid (TFA).
The phosphorylated peptide was quantified by HPLC analysis. Separation of phosphorylated peptide from the unphosphorylated peptide was achieved on a reverse phase column (Deltapak, 5 μm, C18 100D, Part no. 011795) with a binary gradient of water and acteonitrile, each containing 0.1% TFA. IC50 (concentration of inhibitor yielding 50% inhibition) was determined by plotting the percent (%) activity remaining against inhibitor concentration.

The test system of assay [4] is TNF production in whole blood. In words: Inhibition of TNF production in LPS-stimulated whole blood ("WB"). It counts as cell-based. Conditions: Homo sapiens, 4 ng/ml LPS, overnight, ELISA TNF-α. The protocol:
as §1, §2, §5, §6, §4

The test system of assay [5] is IL-1 production in whole blood. In words: Inhibition of IL-1 production in LPS-stimulated whole blood ("WB"). The assay is classed as cell-based. Conditions: Homo sapiens, 4 ng/ml LPS, overnight, ELISA IL-1β. The protocol: as §1, §2, §5, §6, §4

For orientation: IC50 means the concentration that inhibits the measured activity by half. A low value points to inhibition by little substance.

Turning to `CN(C)/C=N/C(=O)OCc1ccc(N(C(N)=O)c2c(F)cccc2F)nc1-c1ccc(F)cc1F` [Compound 9], the IC50 was determined as 0.05 µM in assay [1]; 0.05 µM in assay [2]; 11 µM in assay [3]; 1 µM against activated p38; 20 µM in assay [4]; 12.2 µM in assay [5].
On to `CN(C)/C=N/C(=O)OCc1ccc(N(C(=O)/N=C/N(C)C)c2c(F)cccc2F)nc1-c1ccc(F)cc1F` [Compound 10], for which the concentration for half-maximal inhibition (IC50) in assay [3] turned out to be 0.8 µM; on activated p38 it was 5 µM; in assay [4], 4.3 µM; in assay [5], 2.2 µM.
